Results from patent US10570118B2, “Isoquinolones as BTK inhibitors” (Boehringer Ingelheim International GmbH, priority 2016, dated 2020).

What was measured:
[1] = biological target: human full length His-tagged BTK (Homo sapiens (Human), UniProt Q06187); experiment: BTK Lanthscreen Eu Kinase Binding assay; details: TR-FRET tracer displacement, 2 nM BTK, 30 min pre-incubation
Procedure: BTK Lanthscreen® Eu Kinase Binding assay:
A Lanthscreen® Eu Kinase Binding assay (Life Technologies) was performed to quantitate the ability of test compounds to bind to BTK. The assay is based on the binding and displacement of Alexa Fluor647-labeled Kinase Tracer #236 to the ATP-binding site of human full length His-tagged BTK (Life Technologies cat # PV3587) with TR-FRET detection using a europium-labeled anti-His antibody. The assay was assembled in 384-well low volume NBS black plates (Corning) where 2 nM BTK and test compound in DMSO at varying concentrations were pre-incubated for 30 min at 28° C. in assay buffer consisting of 50 mM HEPES, pH 7.4, 10 mM MgCl2, 1 mM EGTA. 100 μM Na3VO4 and 0.01% Brij 35. Then, 2 nM of Eu-anti His antibody and 30 nM Kinase Tracer were added and incubated for […] at 28° C. Following incubation, TR-FRET signal was read on an Envision plate reader (Excitation: 340 nm; Emissions: 615 and 665 nm). The 665: 615 nm emission ratio was calculated and converted to POC compared to control and blank wells.

BTK = BTK (Homo sapiens (Human), UniProt Q06187); experiment: Inhibition of IL-6 production in B cells co-stimulated with ODN 2006 and anti-hIgD; type: cell-based; details: primary CD19+ B cells, anti-human IgD + ODN 2006 stimulation, 18-24 hours; read-out: B-cell IL-6 IC50
Chain of BTK (Q06187 whole entry): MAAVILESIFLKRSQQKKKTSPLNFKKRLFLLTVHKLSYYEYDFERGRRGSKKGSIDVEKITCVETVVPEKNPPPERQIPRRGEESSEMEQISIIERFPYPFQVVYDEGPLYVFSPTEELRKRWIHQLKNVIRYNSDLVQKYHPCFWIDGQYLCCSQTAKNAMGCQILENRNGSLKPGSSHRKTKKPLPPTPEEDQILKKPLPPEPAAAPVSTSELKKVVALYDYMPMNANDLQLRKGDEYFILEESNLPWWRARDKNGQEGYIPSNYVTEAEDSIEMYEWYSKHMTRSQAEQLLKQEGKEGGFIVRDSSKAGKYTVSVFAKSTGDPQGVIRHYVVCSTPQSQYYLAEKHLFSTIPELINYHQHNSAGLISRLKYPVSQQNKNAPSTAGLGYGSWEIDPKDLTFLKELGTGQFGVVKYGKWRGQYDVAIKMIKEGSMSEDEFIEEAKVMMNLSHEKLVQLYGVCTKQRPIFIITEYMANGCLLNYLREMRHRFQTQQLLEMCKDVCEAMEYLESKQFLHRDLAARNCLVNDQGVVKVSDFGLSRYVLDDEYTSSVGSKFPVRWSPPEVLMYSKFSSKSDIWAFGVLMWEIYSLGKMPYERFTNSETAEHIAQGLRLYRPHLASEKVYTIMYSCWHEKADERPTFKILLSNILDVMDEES
Procedure: Inhibition of IL-6 Production in B Cells Co-Stimulated with ODN 2006 and Anti-hIgD
Primary CD19+ B cells (AllCells # PB010F) are thawed and plated in RPMI containing 10% HI FBS in a 384-well tissue cultured plate at 20,000 cells/well. The cells are treated with test compound (0.5% DMSO final concentration) and incubated for 1 hour at 37° C., 5% CO2. Cells are then stimulated with 5 μg/mL Goat F(ab′)2 anti-human IgD (SouthernBiotech #2032) and 2 uM ODN 2006 (InvivoGen # till-2006) and incubated for 18-24 hours at 37° C., 5% CO2. IL-6 in the supernatant is measured using Meso Scale Discovery kit # K211AKB-6.
(§1) The compounds described herein show a range of selectivity against EGFR as measured in cellular assays (BTK activity measured by IL-6 production in primary CD19^+ cells; EGFR activity measured by EGFR phosphorylation in A431 cells).

EGFR = EGFR (Homo sapiens (Human), UniProt P00533); experiment: Inhibition of EGFR autophosphorylation in A431 human epithelial cells stimulated with epithelial growth factor; type: cell-based; details: 16 hours compound, EGF 60 ng/mL 10 minutes, read-out: A431 p-EGFR IC50
Chain of EGFR (P00533 25-1210): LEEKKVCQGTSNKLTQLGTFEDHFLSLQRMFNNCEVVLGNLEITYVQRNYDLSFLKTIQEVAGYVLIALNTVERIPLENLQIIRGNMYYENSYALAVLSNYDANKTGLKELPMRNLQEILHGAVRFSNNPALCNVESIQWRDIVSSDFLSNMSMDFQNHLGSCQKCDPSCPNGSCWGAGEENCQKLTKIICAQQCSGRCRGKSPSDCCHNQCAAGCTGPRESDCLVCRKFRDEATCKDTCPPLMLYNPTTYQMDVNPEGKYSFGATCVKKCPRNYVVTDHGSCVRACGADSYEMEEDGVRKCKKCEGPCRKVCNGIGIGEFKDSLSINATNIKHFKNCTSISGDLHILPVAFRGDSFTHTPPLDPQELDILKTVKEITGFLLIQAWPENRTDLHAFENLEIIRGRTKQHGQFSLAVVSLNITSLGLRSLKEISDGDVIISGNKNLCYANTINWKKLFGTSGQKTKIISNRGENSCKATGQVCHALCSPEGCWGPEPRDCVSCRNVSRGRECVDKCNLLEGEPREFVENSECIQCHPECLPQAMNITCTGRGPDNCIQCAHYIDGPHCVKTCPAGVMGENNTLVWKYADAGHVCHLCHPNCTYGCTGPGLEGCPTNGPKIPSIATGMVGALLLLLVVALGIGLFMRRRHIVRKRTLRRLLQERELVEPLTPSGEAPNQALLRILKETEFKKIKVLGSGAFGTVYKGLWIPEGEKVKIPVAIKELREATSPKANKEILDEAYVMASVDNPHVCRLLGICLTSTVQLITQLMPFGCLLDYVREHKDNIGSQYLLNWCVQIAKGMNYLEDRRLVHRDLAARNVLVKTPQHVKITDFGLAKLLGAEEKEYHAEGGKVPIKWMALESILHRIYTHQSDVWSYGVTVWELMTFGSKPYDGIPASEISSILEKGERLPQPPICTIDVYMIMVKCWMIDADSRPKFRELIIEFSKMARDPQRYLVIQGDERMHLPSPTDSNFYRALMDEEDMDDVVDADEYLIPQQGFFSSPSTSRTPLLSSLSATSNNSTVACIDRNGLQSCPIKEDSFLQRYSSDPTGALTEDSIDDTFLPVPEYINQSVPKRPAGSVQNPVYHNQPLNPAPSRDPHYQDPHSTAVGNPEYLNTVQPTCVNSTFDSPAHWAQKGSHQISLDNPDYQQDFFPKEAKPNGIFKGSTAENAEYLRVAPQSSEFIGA
Procedure: Inhibition of EGFR Autophosphorylation in A431 Human Epithelial Cells Stimulated with Epithelial Growth Factor
A431 cells (ATCC # CRL-1555 FZ) are thawed and plated in DMEM containing 10% FBS in a 384-well tissue culture treated plate at 15,000 cells/well. After incubating for 24 hours at 37° C., 5% CO2, the cells are treated with test compound (1% DMSO final concentration) and incubated for 16 hours at 37° C., 5% CO2. EGF (Millipore, 01-107) is added at a final concentration of 60 ng/mL and incubated for 10 minutes. The medium is removed, the cells are lysed, and phospho EGFR is measured (Meso Scale Diagnostics, N31CB-1).
as §1

Chain of human full length His-tagged BTK (Q06187 whole entry): as the sequence (Q06187 whole entry) above

IC50 [1]	IC50 (BTK)	IC50 (EGFR)	SMILES
0.56 µM			C=CC(=O)N1CC(c2cc3cc(C4CC4)ccc3c(=O)n2-c2cccc(-c3cc(C(N)=O)n(C)c3)c2CO)C1 (single isomer, unassigned) [Example 42]
0.00056 µM	0.0036 µM	> 10 µM	C=CC(=O)N1CC(c2cc3cc(C4CC4)ccc3c(=O)n2-c2cccc(-c3cc(C(N)=O)n(C)c3)c2CO)C1 (single isomer, unassigned) [Example 43]
0.0007 µM	0.0043 µM	4.7 µM	Cn1cc(-c2cccc(-n3c(C4CN(C#N)C4)cc4cc(C5CC5)ccc4c3=O)c2CO)cc1C(N)=O [Example 1]
0.004 µM	0.036 µM	> 10 µM	C=CC(=O)N1CC(Cc2cc3cc(C4CC4)ccc3c(=O)n2-c2cccc(-c3cc(C(N)=O)n(C)c3)c2CO)C1 [Example 2]
0.0019 µM			N#CN1CC(c2cc3cc(C4CC4)ccc3c(=O)n2-c2cccc(-c3ccc4[nH]ncc4c3)c2CO)C1 [Example 3]
0.005 µM			N#CN1CC(c2cc3cc(C4CC4)ccc3c(=O)n2-c2cccc(-c3cccc(C(N)=O)c3)c2CO)C1 [Example 4]
0.0052 µM	0.1 µM	> 10 µM	C=CC(=O)N1CC(c2cc3cc(C4CC4)ccc3c(=O)n2-c2cccc(-c3cccc(C(N)=O)c3)c2CO)C1 [Example 5]
0.0039 µM	0.016 µM	4.5 µM	C=CC(=O)N1CCC1Cc1cc2cc(C3CC3)ccc2c(=O)n1-c1cccc(-c2cc(C(N)=O)n(C)c2)c1CO (stereo not shown) [Example 6]
0.0007 µM	0.0056 µM	> 10 µM	C=CC(=O)N1CC(c2cc3cc(C4CC4)ccc3c(=O)n2-c2cccc(-c3cc(C(N)=O)n(C)c3)c2CO)C1 [Example 7]
0.011 µM	0.096 µM	> 10 µM	CC#CC(=O)N1CC(Cc2cc3cc(C4CC4)ccc3c(=O)n2-c2cccc(-c3cc(C(N)=O)n(C)c3)c2CO)C1 [Example 8]
0.0026 µM			Cn1cc(-c2cccc(-n3c(C4CN(C#N)C4)cc4cc(C5CC5)ccc4c3=O)c2CO)cc(N)c1=O [Example 9]
0.0019 µM	0.021 µM	> 10 µM	C=CC(=O)N1CC(c2cc3cc(C4CC4)ccc3c(=O)n2-c2cccc(-c3cc(N)c(=O)n(C)c3)c2CO)C1 [Example 11]
0.0033 µM	0.028 µM	4.5 µM	N#CN1CC(c2cc3cc(C4CC4)ccc3c(=O)n2-c2cccc(-c3cc(N)ncn3)c2CO)C1 [Example 12]
0.0024 µM	0.012 µM	> 10 µM	C=CC(=O)N1CCC(c2cc3cc(C4CC4)ccc3c(=O)n2-c2cccc(-c3cc(C(N)=O)n(C)c3)c2CO)C1 (stereo not shown) [Example 13]
0.019 µM	0.085 µM	> 10 µM	C=CC(=O)N1CC(Cc2cc3cc(C4CC4)ccc3c(=O)n2-c2cccc(-c3cc(N)ncn3)c2CO)C1 [Example 14]
0.0042 µM	0.0088 µM	> 10 µM	C=CC(=O)N1CC(c2cc3cc(C4CC4)ccc3c(=O)n2-c2cccc(-c3ccnc(NC)c3)c2CO)C1 [Example 15]
0.02 µM	0.092 µM	> 10 µM	C=CC(=O)N1CCC(c2cc3cc(C4CC4)ccc3c(=O)n2-c2cccc(-c3cc(N)c(=O)n(C)c3)c2CO)C1 (stereo not shown) [Example 16]
	0.0037 µM	> 10 µM	C=CC(=O)N1CC(c2cc3cc(C4CC4)ccc3c(=O)n2-c2cccc(-c3ccnc(N)c3)c2CO)C1 [Example 17]
0.059 µM	0.16 µM	> 10 µM	C=CC(=O)N(C)Cc1cc2cc(C3CC3)ccc2c(=O)n1-c1cccc(-c2cc(C(N)=O)n(C)c2)c1CO [Example 18]
0.064 µM			CC#CC(=O)N1CC(c2cc3cc(C4CC4)ccc3c(=O)n2-c2cccc(-c3cc(C(N)=O)n(C)c3)c2CO)C1 [Example 19]
0.0089 µM	0.037 µM	3.2 µM	C=CC(=O)N1CC(c2cc3cc(C4CC4)ccc3c(=O)n2-c2cccc(-c3ccnc(N)c3)c2Cl)C1 [Example 20]

IC50 [1]	IC50 (BTK)	IC50 (EGFR)	SMILES
0.00048 µM	0.0019 µM	> 10 µM	C=CC(=O)N1CC(c2cc3cc(C4CC4)ccc3c(=O)n2-c2cccc(-c3cc(N)ncn3)c2CO)C1 [Example 21]
0.037 µM			C=CC(=O)N1CCC(c2cc3cc(C4CC4)ccc3c(=O)n2-c2cccc(-c3ccncc3)c2CO)C1 (stereo not shown) [Example 22]
0.12 µM			C=CC(=O)N(C)Cc1cc2cc(C3CC3)ccc2c(=O)n1-c1cccc(-c2ccnc(N)c2)c1CO [Example 23]
0.14 µM			C=CC(=O)N(C)Cc1cc2cc(C3CC3)ccc2c(=O)n1-c1cccc(-c2cc(N)c(=O)n(C)c2)c1CO [Example 24]
0.16 µM			C=CC(=O)N1CCC(c2cc3cc(C4CC4)ccc3c(=O)n2-c2cccc(-c3ccn4cncc4c3)c2CO)C1 (stereo not shown) [Example 25]
0.23 µM			C/C=C/C(=O)N1CC(c2cc3cc(C4CC4)ccc3c(=O)n2-c2cccc(-c3cc(C(N)=O)n(C)c3)c2CO)C1 [Example 26]
0.31 µM			C=CC(=O)N1CC(Cc2cc3cc(C4CC4)ccc3c(=O)n2-c2cccc(-c3ccc4cncn4c3)c2CO)C1 [Example 27]
0.31 µM			CC#CC(=O)N1CC(c2cc3cc(C4CC4)ccc3c(=O)n2-c2cccc(-c3cc(N)c(=O)n(C)c3)c2CO)C1 [Example 28]
0.44 µM			C/C=C/C(=O)N1CC(c2cc3cc(C4CC4)ccc3c(=O)n2-c2cccc(-c3ccnc(NC)c3)c2CO)C1 [Example 29]
0.45 µM			CC#CC(=O)N1CC(c2cc3cc(C4CC4)ccc3c(=O)n2-c2cccc(-c3ccc4[nH]ncc4c3)c2CO)C1 [Example 30]
0.48 µM			Cn1cc(-c2cccc(-n3c(C4CCN(C#N)C4)cc4cc(C5CC5)ccc4c3=O)c2CO)cc(N)c1=O (stereo not shown) [Example 31]
0.49 µM			CN(C#N)Cc1cc2cc(C3CC3)ccc2c(=O)n1-c1cccc(-c2cc(N)c(=O)n(C)c2)c1CO [Example 32]
0.51 µM			C=CC(=O)N1CC(Cc2cc3cc(C4CC4)ccc3c(=O)n2-c2cccc(-c3ccnc(NC)c3)c2CO)C1 [Example 33]
0.53 µM			CC#CC(=O)N(C)Cc1cc2cc(C3CC3)ccc2c(=O)n1-c1cccc(-c2cc(C(N)=O)n(C)c2)c1CO [Example 34]
0.53 µM			CC#CC(=O)N1CC(c2cc3cc(C4CC4)ccc3c(=O)n2-c2cccc(-c3ccnc(NC)c3)c2CO)C1 [Example 35]
0.58 µM			C=CC(=O)N(C)Cc1cc2cc(C3CC3)ccc2c(=O)n1-c1cccc(-c2cccc(C(N)=O)c2)c1CO [Example 36]
0.62 µM			C=CC(=O)N1CCC(c2cc3cc(C4CC4)ccc3c(=O)n2-c2cccc(-c3ccnc(N)c3F)c2CO)C1 (stereo not shown) [Example 37]
0.25 µM			C=CC(=O)N1CC(Cc2cc3cc(C4CC4)cc(OC)c3c(=O)n2-c2cccc(-c3cc(C(N)=O)n(C)c3)c2CO)C1 [Example 38]
0.00042 µM	0.0046 µM	> 10 µM	C=CC(=O)N1CC(c2cc3cc(C4CC4)cc(F)c3c(=O)n2-c2cccc(-c3cc(C(N)=O)n(C)c3)c2CO)C1 [Example 40]
0.00071 µM			C=CC(=O)N1CC(Cc2cc3cc(C4CC4)cc(F)c3c(=O)n2-c2cccc(-c3cc(C(N)=O)n(C)c3)c2CO)C1 [Example 41]
